In brackets after ≈: the same amount, converted by molar mass. Activity calls are given as the source filed them. The calls are words filed in the database; no cut-off is given here.
Experiments:
[1] = Permeability in human Caco2 cells; type: ADME, cell-based; details: Caco-2, read-out: permeability
Mus musculus [2] = assay: Reduction in triglycerides level in mouse at 3 mg/kg, po after 2 hrs by postprandial triglyceride assay; type: functional
[3] = target: T1, Diacylglycerol O-acyltransferase 1 (Mus musculus, UniProt Q9Z2A7); assay: Inhibition of mouse DGAT1 expressed in Sf9 insect cells using 1,2-dioleoyl-sn-glycerol and [14C]-palmitoyl-CoA substrate by scintillation counting analysis
T1 sequence (Q9Z2A7 whole entry): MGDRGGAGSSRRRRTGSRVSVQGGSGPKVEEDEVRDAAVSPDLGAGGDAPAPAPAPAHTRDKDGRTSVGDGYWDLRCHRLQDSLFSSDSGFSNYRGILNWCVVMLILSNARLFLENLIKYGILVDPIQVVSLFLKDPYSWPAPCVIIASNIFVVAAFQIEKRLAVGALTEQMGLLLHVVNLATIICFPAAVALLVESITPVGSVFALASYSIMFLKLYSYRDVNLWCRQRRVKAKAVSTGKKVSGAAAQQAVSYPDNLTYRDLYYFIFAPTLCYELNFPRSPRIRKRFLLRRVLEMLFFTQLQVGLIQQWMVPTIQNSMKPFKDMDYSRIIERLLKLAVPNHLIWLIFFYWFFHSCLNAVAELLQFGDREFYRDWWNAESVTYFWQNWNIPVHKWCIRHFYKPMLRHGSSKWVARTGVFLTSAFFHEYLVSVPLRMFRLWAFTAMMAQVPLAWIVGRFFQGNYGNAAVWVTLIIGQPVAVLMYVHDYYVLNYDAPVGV

[4] = Total AUC in rat; type: ADME, organism-based; set-up: time AUCmax; details: in vivo
[5] = Cmax in rat; type: ADME, organism-based; details: in vivo
[6] = Tmax in rat; type: ADME, organism-based; details: in vivo
[7] = Solubility in plasma (unknown origin) at pH 7; type: ADME, cell-free
[8] = Solubility of the compound; type: physicochemical
Mus musculus [9] = assay: Reduction in triglycerides level in mouse at 10 mg/kg, po after 2 hrs by postprandial triglyceride assay; type: functional
[10] = target: T2, Diacylglycerol O-acyltransferase 2 (Homo sapiens) (UniProt Q96PD7); assay: (§1) Inhibition of human DGAT2 expressed in Sf9 insect cells using 1,2-dioleoyl-sn-glycerol and [14C]-palmitoyl-CoA substrate by scintillation counting analysis
T2 sequence (whole entry): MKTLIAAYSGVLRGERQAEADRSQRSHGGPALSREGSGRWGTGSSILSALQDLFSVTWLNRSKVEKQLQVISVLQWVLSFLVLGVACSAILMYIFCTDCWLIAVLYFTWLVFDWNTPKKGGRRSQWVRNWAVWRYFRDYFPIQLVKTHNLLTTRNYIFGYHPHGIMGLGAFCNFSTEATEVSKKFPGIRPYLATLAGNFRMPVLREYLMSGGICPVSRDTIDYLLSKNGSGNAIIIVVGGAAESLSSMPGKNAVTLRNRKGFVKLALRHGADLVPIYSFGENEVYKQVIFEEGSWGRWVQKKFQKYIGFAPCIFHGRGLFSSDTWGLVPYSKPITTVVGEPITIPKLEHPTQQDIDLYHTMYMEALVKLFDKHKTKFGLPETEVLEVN

[11] = target: T3, Sterol O-acyltransferase 2 (Homo sapiens, UniProt O75908); assay: Inhibition of human ACAT2 expressed in Sf9 insect cells using [14C]-oleoyl-CoA by scintillation counting analysis
T3 sequence (O75908 whole entry): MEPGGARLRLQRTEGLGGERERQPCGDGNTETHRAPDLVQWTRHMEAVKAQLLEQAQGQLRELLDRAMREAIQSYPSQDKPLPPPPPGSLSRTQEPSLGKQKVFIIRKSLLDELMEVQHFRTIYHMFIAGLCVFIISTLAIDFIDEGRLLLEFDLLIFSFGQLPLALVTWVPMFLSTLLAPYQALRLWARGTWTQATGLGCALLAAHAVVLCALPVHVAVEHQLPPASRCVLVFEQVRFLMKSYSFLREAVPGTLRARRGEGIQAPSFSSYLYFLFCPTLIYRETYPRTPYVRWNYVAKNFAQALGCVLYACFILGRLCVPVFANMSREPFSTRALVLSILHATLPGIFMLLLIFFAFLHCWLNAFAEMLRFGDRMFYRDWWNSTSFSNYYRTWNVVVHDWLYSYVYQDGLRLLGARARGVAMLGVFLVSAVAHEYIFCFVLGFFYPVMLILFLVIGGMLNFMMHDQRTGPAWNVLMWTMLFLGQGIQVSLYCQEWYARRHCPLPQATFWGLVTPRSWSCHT

[12] = AUC in rat at 10 mg/kg; type: ADME, organism-based; set-up: dose 10 mg/kg; details: plasma
[13] = target: T4, Diacylglycerol O-acyltransferase 2 (Homo sapiens, UniProt Q96PD7); assay: as §1
T4 sequence (Q96PD7 whole entry): T2 sequence (whole entry)

[14] = target: T5, Sterol O-acyltransferase 1 (Homo sapiens, UniProt P35610); assay: Inhibition of human ACAT1 expressed in Sf9 insect cells using [14C]-oleoyl-CoA by scintillation counting analysis
T5 sequence (P35610 whole entry): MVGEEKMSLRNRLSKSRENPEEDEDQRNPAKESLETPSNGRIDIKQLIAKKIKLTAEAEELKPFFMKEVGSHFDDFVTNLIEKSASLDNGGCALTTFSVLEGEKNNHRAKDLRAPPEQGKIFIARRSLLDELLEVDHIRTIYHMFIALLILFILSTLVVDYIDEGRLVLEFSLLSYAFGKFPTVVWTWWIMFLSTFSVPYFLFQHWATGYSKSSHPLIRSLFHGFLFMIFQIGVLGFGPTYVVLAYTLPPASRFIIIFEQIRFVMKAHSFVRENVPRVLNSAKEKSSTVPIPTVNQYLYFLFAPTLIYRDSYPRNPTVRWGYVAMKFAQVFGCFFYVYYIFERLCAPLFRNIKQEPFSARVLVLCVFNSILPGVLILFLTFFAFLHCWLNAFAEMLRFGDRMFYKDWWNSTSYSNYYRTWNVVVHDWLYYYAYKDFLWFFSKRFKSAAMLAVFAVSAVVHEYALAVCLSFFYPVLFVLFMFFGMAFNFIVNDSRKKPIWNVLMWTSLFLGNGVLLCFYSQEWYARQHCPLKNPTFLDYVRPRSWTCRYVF

Cytochrome P450 2C9 = Cytochrome P450 2C9 (Homo sapiens, UniProt P11712); assay: Inhibition of CYP2C9 (unknown origin)
[15] = AUC in mouse at 10 mg/kg; type: ADME, organism-based; set-up: dose 10 mg/kg; details: plasma

Chain of Cytochrome P450 2C9 (P11712 whole entry): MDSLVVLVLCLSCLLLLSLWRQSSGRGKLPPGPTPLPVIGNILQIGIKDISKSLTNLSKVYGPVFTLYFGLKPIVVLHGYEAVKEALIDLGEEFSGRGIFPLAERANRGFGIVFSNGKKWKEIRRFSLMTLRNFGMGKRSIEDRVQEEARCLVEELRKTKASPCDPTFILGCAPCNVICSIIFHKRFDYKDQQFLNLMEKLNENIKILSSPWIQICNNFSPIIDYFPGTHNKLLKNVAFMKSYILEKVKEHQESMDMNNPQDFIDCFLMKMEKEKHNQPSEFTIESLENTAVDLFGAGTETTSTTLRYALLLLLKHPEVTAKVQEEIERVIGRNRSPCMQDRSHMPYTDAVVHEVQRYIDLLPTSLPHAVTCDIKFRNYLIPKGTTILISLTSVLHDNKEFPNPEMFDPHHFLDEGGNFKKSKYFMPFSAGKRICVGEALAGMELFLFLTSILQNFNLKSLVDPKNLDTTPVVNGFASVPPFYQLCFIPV

Structure (SMILES) | Papp [1] | inhibition in vivo at 3 mg/kg (Mus musculus [2]) | IC50 [3] | AUC [4] | Cmax [5] | Tmax [6] | solubility [7] | solubility [8] | inhibition in vivo at 10 mg/kg (Mus musculus [9]) | inhibition [10] | IC50 [11] | AUC [12] | IC50 [13] | IC50 [14] | IC50 (Cytochrome P450 2C9) | AUC [15]
CCCCCCCNC(=O)N1CCOc2cc(-c3ccc([C@H]4CC[C@H](CC(=O)O)CC4)cc3)ccc21 | 3.5 ×10⁻⁶ cm/s | 48% | 0.027 µM | 0.195 µM·h | 65 nM | 2 h | 5 µM (≈ 2.46 µg/mL) | – | – | – | – | – | – | – | – | –
O=C(O)C[C@H]1CC[C@H](c2ccc(-c3ccc4c(c3)OCCN4C(=O)Nc3ccc(F)cc3C(F)(F)F)cc2)CC1 | 23.9 ×10⁻⁶ cm/s | 59% | 0.035 µM | – | – | – | – | 100 µM (≈ 55.7 µg/mL) | 91% | inactive | 9.6 µM | 23 µM·h | – | – | – | –
C[C@@H]1CN(C(=O)Nc2ccccc2)c2ccc(-c3ccc([C@H]4CC[C@H](CC(=O)O)CC4)cc3)cc2O1 | – | – | 0.018 µM | – | – | – | – | – | – | – | 2 µM | – | 10 µM | 10 µM | 14 µM | 34 µM·h
